PubChem BioAssay (NCI)
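Each compound was tested at five concentrations against cells in 96-well plates for 48 hours. At the TGI there is no net growth.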

Tests used:
Test in all cases: growth of human tumour cells (NCI), 48 h
[1] = tested on: 786-0 renal
[2] = tested on: A549 NSCLC
[3] = tested on: ACHN renal
[4] = tested on: BT-549 breast
[5] = tested on: CAKI-1 renal
[6] = tested on: CCRF-CEM leukemia
[7] = tested on: COLO 205 colon
[8] = tested on: DU-145 prostate
[9] = tested on: EKVX NSCLC
[10] = tested on: HCC-2998 colon
[11] = tested on: HCT-116 colon
[12] = tested on: HCT-15 colon
[13] = tested on: HL-60(TB) leukemia
[14] = tested on: HOP-62 NSCLC
[15] = tested on: HOP-92 NSCLC
[16] = tested on: HS 578T breast
[17] = tested on: HT29 colon
[18] = tested on: IGROV1 ovarian
[19] = tested on: K-562 leukemia
[20] = tested on: KM12 colon
[21] = tested on: LOX IMVI melanoma
[22] = tested on: M14 melanoma
[23] = tested on: MALME-3M melanoma
[24] = tested on: MCF7 breast
[25] = tested on: MDA-MB-231 breast
[26] = tested on: MDA-MB-435
[27] = tested on: MDA-N
[28] = tested on: MOLT-4 leukemia
[29] = tested on: NCI-H226 lung
[30] = tested on: NCI-H23 lung
[31] = tested on: NCI-H460 lung
[32] = tested on: NCI-H522 lung
[33] = tested on: NCI/ADR-RES ovarian
[34] = tested on: OVCAR-3 ovarian
[35] = tested on: OVCAR-4 ovarian
[36] = tested on: OVCAR-5 ovarian
[37] = tested on: OVCAR-8 ovarian
[38] = tested on: PC-3 prostate
[39] = tested on: RPMI-8226 leukemia
[40] = tested on: RXF 393 renal
[41] = tested on: SF-268 CNS
[42] = tested on: SF-295 CNS
[43] = tested on: SF-539 CNS
[44] = tested on: SK-MEL-2 melanoma
[45] = tested on: SK-MEL-28 melanoma
[46] = tested on: SK-MEL-5 melanoma
[47] = tested on: SK-OV-3 ovarian
[48] = tested on: SN12C renal
[49] = tested on: SNB-19 CNS
[50] = tested on: SNB-75 CNS
[51] = tested on: SR leukemia
[52] = tested on: SW-620 colon
[53] = tested on: T-47D breast
[54] = tested on: TK-10 renal
[55] = tested on: U251 CNS
[56] = tested on: UACC-257 melanoma
[57] = tested on: UACC-62 melanoma
[58] = tested on: UO-31 renal

Compound `COc1cc(N(CCC#N)CCC#N)ccc1/C(N=Nc1ccccc1)=N/NC(=O)c1cc(Br)ccc1O` has a TGI [1] of over 100 µM, a TGI [2] of over 100 µM and a TGI [3] of 81.6 µM. For the same compound, the TGI [4] was 65.2 µM, the TGI [5] was 61.4 µM and the TGI [6] was 33.2 µM. For the same compound, the TGI [7] was 29.8 µM, the TGI [8] was 74.3 µM and the TGI [9] was 69.2 µM. For the same compound, the TGI [10] was 48 µM, the TGI [11] was 44.1 µM and the TGI [12] was 68.2 µM. The TGI [13] was 36.6 µM, the TGI [14] was 95.5 µM and the TGI [15] was 68.6 µM. The TGI [16] was over 100 µM, the TGI [17] was 71.4 µM and the TGI [18] was 35 µM. The TGI [19] was 42.7 µM, the TGI [20] was over 100 µM and the TGI [21] was 65.1 µM. It also gave a TGI [22] of over 100 µM, a TGI [23] of over 100 µM and a TGI [24] of 55.5 µM. For the same compound, the TGI [25] was 62.6 µM, the TGI [26] was over 100 µM and the TGI [27] was over 100 µM. For the same compound, the TGI [28] was 38.3 µM, the TGI [29] was over 100 µM and the TGI [30] was 49.8 µM. It also gave a TGI [31] of 51.1 µM, a TGI [32] of 67.9 µM and a TGI [33] of over 100 µM. The TGI [34] was 83.5 µM, the TGI [35] was 64.4 µM and the TGI [36] was over 100 µM. For the same compound, the TGI [37] was over 100 µM, the TGI [38] was over 100 µM and the TGI [39] was 44.6 µM. For the same compound, the TGI [40] was 70.9 µM, the TGI [41] was over 100 µM and the TGI [42] was over 100 µM. The TGI [43] was 83.7 µM, the TGI [44] was 85.1 µM and the TGI [45] was 87.6 µM. It also gave a TGI [46] of 42.3 µM, a TGI [47] of over 100 µM and a TGI [48] of 96.6 µM. It also gave a TGI [49] of over 100 µM, a TGI [50] of over 100 µM and a TGI [51] of 43.7 µM. For the same compound, the TGI [52] was over 100 µM, the TGI [53] was 57.8 µM and the TGI [54] was over 100 µM. For the same compound, the TGI [55] was over 100 µM, the TGI [56] was 62.8 µM and the TGI [57] was 46.7 µM. For the same compound, the TGI [58] was 57.5 µM.
